Experimental data reported in patent US20170065564A1, “BIS-CYCLIC GUANIDINE COMPOUND COMPOSITIONS, METHODS OF USE AND TREATMENT THEREOF” (University of South Florida, priority 2014, published 2017).

Key:
Format in all cases: cell-based
Staphylococcus aureus = assay: MIC micro broth dilution assay; parameters: key to stacked score activity, 100/MIC, S: stacked score = 100/MIC; conditions: S. aureus
Experimental: (§1) For this study we used a representative panel of multi-drug resistant clinical ESKAPE pathogen isolates (Supplemental Table S6).^42 43 3a, 44 45 Gram-positive organisms were grown in tryptic soy broth media (TSB), whilst Gram-negative organisms were grown in lysogeny Broth (LB), as described by us previously. ^43 MIC and MBC determination assays.
(§2) Broth cultures of ESKAPE strains were grown overnight before being diluted 1 in 1,000 in fresh media. Sterile 96-well plates were loaded with culture and compounds (in DMF) were added at decreasing concentrations to equal a total volume of 200 μl per well. Care was taken to not add more than 2.0% DMF to any well. Plates were then incubated at 37° C., and MICs determined after 24 hours by visual inspection for a lack of turbidity in wells. All assays were performed in triplicate with identical results obtained. For both the scaffold ranking and positional scanning samples, relative broad-spectrum activity was determined via stacked scores: […]

Klebsiella pneumoniae = assay: MIC micro broth dilution assay; parameters: key to stacked score activity, 100/MIC, K: stacked score = 100/MIC; conditions: K. pneumoniae
Experimental: as §1, §2

Acinetobacter baumannii = assay: MIC micro broth dilution assay; parameters: key to stacked score activity, 100/MIC, A: stacked score = 100/MIC; conditions: A. baumannii
Experimental: as §1, §2

Enterobacter cloacae = assay: MIC micro broth dilution assay; parameters: key to stacked score activity, 100/MIC, E: stacked score = 100/MIC; conditions: E. cloacae
Experimental: as §1, §2

Enterococcus faecium = assay: MIC micro broth dilution assay; parameters: key to stacked score activity, 100/MIC, E: stacked score = 100/MIC; conditions: E. faecium
Experimental: as §1, §2

ESKAPE pathogens = assay: MIC micro broth dilution assay, statements and stacked scores over all ESKAPE pathogens; conditions: letters E,S,K,A,P,E = ESKAPE pathogens, — = none
Experimental: as §1
as §2, with “The minimum inhibitory concentration (MIC) for the combinatorial libraries, deconvolved 2157 library, and individual compounds were determined as follows. Broth” for “Broth”

Structure (SMILES)	stacked score activity, 100/MIC, S (Staphylococcus aureus)	stacked score activity, 100/MIC, K (Klebsiella pneumoniae)	stacked score activity, 100/MIC, A (Acinetobacter baumannii)	stacked score activity, 100/MIC, E (Enterobacter cloacae)	stacked score activity, 100/MIC, E (Enterococcus faecium)	pathogens against which the compound showed activity at 4 ug/ml (ESKAPE pathogens)	pathogens against which the compound showed activity at 5 ug/ml (ESKAPE pathogens)	pathogens against which the compound showed activity at 10 ug/ml (ESKAPE pathogens)	pathogens against which the compound showed activity at 25 ug/ml (ESKAPE pathogens)
CCCC[C@H]1CN(CCCC[C@H]2CNC(=N)N2CCc2cccc(C(F)(F)F)c2)C(=N)N1CCc1ccc(-c2ccccc2)cc1 [Compound 3]	33	25	25	20	25	ESKA	ESKAPE	ESKAPE	ESKAPE
CCCCCCCN1C(=N)N(CCCC[C@H]2CNC(=N)N2CCc2cccc(C(F)(F)F)c2)C[C@H]1Cc1cccc2ccccc12 [Compound 4]	25	20	25	20	33	ESA	ESKAE	ESKAE	ESKAPE
N=C1NC[C@H](CCCCN2C[C@@H](Cc3cccc4ccccc34)N(CCc3ccc(-c4ccccc4)cc3)C2=N)N1CCc1cccc(C(F)(F)F)c1 [Compound 6]	20	20	20	20	10		SKAE	ESKAE	ESKAPE
N=C1NC[C@H](CCCCN2C[C@H](CC3CCCCC3)N(CCCCC3CCCCC3)C2=N)N1CCc1cccc(C(F)(F)F)c1 [Compound 8]	10	20	20	20	20		EKAPE	ESKAPE	ESKAPE
N=C1NC[C@H](CCCCN2C[C@H](CC3CCCCC3)N(CCc3ccc(-c4ccccc4)cc3)C2=N)N1CCc1cccc(C(F)(F)F)c1 [Compound 9]	20	20	20	20	25		ESKAPE	ESKAPE	ESKAPE
CCCCCCCN1C(=N)N(CCCC[C@H]2CNC(=N)N2CCCCC2CCCCC2)C[C@@H]1CCCC [Compound 10]	25	20	25	20	25	ESAP	ESKAPE	ESKAPE	ESKAPE
CCCC[C@H]1CN(CCCC[C@H]2CNC(=N)N2CCCCC2CCCCC2)C(=N)N1CCCCC1CCCCC1 [Compound 11]	20	20	25	20	50		ESAPE	ESKAPE	ESKAPE
CCCC[C@H]1CN(CCCC[C@H]2CNC(=N)N2CCCCC2CCCCC2)C(=N)N1CCc1ccc(-c2ccccc2)cc1 [Compound 12]	20	20	25	20	20		ESKAE	ESKAPE	ESKAPE
CCCCCCCN1C(=N)N(CCCC[C@H]2CNC(=N)N2CCCCC2CCCCC2)C[C@H]1Cc1cccc2ccccc12 [Compound 13]	20	20	20	20	20		ESKAE	ESKAE	ESKAPE
N=C1NC[C@H](CCCCN2C[C@@H](Cc3cccc4ccccc34)N(CCCCC3CCCCC3)C2=N)N1CCCCC1CCCCC1 [Compound 14]	20	20	20	20	10		SKAE	ESKAE	ESKAPE
CCC[C@@H]1CN(CCCC[C@H]2CNC(=N)N2CC2CCCCC2)C(=N)N1 [Compound 43]	0	0	0	0	0				
CCC[C@@H]1CN(CCCC[C@H]2CNC(=N)N2CC2CCCCC2)C(=N)N1CCc1cccc(C)c1 [Compound 44]	4	0	0	0	0				
CCC[C@@H]1CN(CCCC[C@H]2CNC(=N)N2CC2CCCCC2)C(=N)N1CC(C)CC (stereo partly drawn) [Compound 45]	4	0	0	0	0				
CC1CCC(CN2C(=N)NC[C@@H]2CCCCN2CCNC2=N)CC1 (stereo partly drawn) [Compound 46]	0	0	0	0	0				
Cc1cccc(CCN2CCN(CCCC[C@H]3CNC(=N)N3CC3CCC(C)CC3)C2=N)c1 (stereo partly drawn) [Compound 47]	4	0	0	0	0				
CCC(C)CN1CCN(CCCC[C@H]2CNC(=N)N2CC2CCC(C)CC2)C1=N (stereo partly drawn) [Compound 48]	0	0	0	0	0				
CCC(C)[C@H]1CN(CCCC[C@H]2CNC(=N)N2CC2CCC(C)CC2)C(=N)N1 (stereo partly drawn) [Compound 49]	4	0	0	0	0				
CCC(C)CN1C(=N)N(CCCC[C@H]2CNC(=N)N2CC2CCC(C)CC2)C[C@@H]1C(C)CC (stereo partly drawn) [Compound 51]	4	0	0	0	0				
CCC[C@@H]1CN(CCCC[C@H]2CNC(=N)N2CC2CCC(C)CC2)C(=N)N1 (stereo partly drawn) [Compound 52]	4	0	0	0	0				
CCC[C@@H]1CN(CCCC[C@H]2CNC(=N)N2CC2CCC(C)CC2)C(=N)N1CCc1cccc(C)c1 (stereo partly drawn) [Compound 53]	4	0	0	0	0				
CCC[C@@H]1CN(CCCC[C@H]2CNC(=N)N2CC2CCC(C)CC2)C(=N)N1CC(C)CC (stereo partly drawn) [Compound 54]	4	0	0	0	0				
